{"source": "paper PMC12527922", "about": "“Cocaine chemogenetics blunts drug-seeking by synthetic physiology” (Nature, 2025)", "key": {"[1]": {"target": "α7–GlyR mutant chimeric channels (Homo sapiens, UniProt P36544, L131A)", "sequence (P36544 23-228 L131A)": "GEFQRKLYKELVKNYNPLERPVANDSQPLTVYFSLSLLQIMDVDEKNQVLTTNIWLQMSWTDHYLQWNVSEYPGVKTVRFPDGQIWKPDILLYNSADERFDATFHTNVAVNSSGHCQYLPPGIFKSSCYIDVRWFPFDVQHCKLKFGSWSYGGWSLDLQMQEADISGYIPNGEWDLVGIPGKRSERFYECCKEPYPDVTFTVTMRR", "sequence (P23415 248-457 partner)": "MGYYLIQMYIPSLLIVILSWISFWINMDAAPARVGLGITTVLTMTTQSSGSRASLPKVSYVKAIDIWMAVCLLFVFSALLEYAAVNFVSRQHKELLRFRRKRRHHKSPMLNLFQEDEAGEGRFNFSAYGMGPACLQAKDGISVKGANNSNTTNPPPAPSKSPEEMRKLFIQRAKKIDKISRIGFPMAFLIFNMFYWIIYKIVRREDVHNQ", "assay": "Membrane potential assay screen, mutant α7–GlyR chimeric channels", "format": "cell-based", "settings": "EC50 at α7GlyR L131A, sheet 1d"}, "[2]": {"target": "α7–GlyR mutant chimeric channels (Homo sapiens, UniProt P36544, L131F)", "sequence (P36544 23-228 L131F)": "as the sequence (P36544 23-228 L131A) above, with A109F counted along it", "sequence (P23415 248-457 partner)": "as the sequence (P23415 248-457 partner) above", "assay": "Membrane potential assay screen, mutant α7–GlyR chimeric channels", "format": "cell-based", "settings": "EC50 at α7GlyR L131F, sheet 1d"}, "[3]": {"target": "α7–GlyR mutant chimeric channels (Homo sapiens, UniProt P36544, L131G)", "sequence (P36544 23-229 L131G)": "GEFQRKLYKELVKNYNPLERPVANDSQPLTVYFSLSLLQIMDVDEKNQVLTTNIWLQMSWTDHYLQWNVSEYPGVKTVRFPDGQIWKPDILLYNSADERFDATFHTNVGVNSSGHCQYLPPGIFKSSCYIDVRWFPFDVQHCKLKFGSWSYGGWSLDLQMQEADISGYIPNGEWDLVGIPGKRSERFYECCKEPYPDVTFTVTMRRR", "sequence (P23415 248-457 partner)": "as the sequence (P23415 248-457 partner) above", "assay": "Membrane potential assay screen, mutant α7–GlyR chimeric channels", "format": "cell-based", "settings": "EC50 at α7GlyR L131G, sheet 1d"}, "[4]": {"target": "α7–GlyR mutant chimeric channels (Homo sapiens, UniProt P36544, L131M)", "sequence (P36544 23-229 L131M)": "as the sequence (P36544 23-229 L131G) above, with G109M counted along it", "sequence (P23415 247-457 partner)": "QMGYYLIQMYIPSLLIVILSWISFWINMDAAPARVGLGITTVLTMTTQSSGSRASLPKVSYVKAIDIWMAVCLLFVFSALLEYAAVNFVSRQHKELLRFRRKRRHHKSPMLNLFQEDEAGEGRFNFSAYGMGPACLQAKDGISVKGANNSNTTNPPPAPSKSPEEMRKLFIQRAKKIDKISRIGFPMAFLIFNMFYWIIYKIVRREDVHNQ", "assay": "Membrane potential assay screen, mutant α7–GlyR chimeric channels", "format": "cell-based", "settings": "EC50 at α7 GlyR L131M, sheet 1d"}, "[5]": {"target": "α7–GlyR mutant chimeric channels (Homo sapiens, UniProt P36544, L131N)", "sequence (P36544 23-230 L131N)": "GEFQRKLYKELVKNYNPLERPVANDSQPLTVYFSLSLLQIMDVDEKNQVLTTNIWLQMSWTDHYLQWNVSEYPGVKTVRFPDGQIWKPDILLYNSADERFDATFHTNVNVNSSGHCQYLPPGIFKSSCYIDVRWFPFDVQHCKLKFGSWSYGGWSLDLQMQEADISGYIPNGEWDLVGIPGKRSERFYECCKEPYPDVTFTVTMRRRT", "sequence (P23415 247-457 partner)": "as the sequence (P23415 247-457 partner) above", "assay": "Membrane potential assay screen, mutant α7–GlyR chimeric channels", "format": "cell-based", "settings": "EC50 at α7 GlyR L131N, sheet 1d"}, "[6]": {"target": "α7–GlyR mutant chimeric channels (Homo sapiens, UniProt P36544, L131Q)", "sequence (P36544 23-230 L131Q)": "as the sequence (P36544 23-230 L131N) above, with N109Q counted along it", "sequence (P23415 247-457 partner)": "as the sequence (P23415 247-457 partner) above", "assay": "Membrane potential assay screen, mutant α7–GlyR chimeric channels", "format": "cell-based", "settings": "EC50 at α7 GlyR L131Q, sheet 1d"}, "[7]": {"target": "α7–GlyR mutant chimeric channels (Homo sapiens, UniProt P36544, L141A)", "sequence (P36544 23-230 L141A)": "as the sequence (P36544 23-230 L131N) above, with N109L, L119A counted along it", "sequence (P23415 247-457 partner)": "as the sequence (P23415 247-457 partner) above", "assay": "Membrane potential assay screen, mutant α7–GlyR chimeric channels", "format": "cell-based", "settings": "EC50 at α7 GlyR L141A, sheet 1d"}, "[8]": {"target": "α7–GlyR mutant chimeric channels (Homo sapiens, UniProt P36544, L141F)", "sequence (P36544 23-230 L141F)": "as the sequence (P36544 23-230 L131N) above, with N109L, L119F counted along it", "sequence (P23415 247-457 partner)": "as the sequence (P23415 247-457 partner) above", "assay": "Membrane potential assay screen, mutant α7–GlyR chimeric channels", "format": "cell-based", "settings": "EC50 at α7 GlyR L141F, sheet 1d"}, "[9]": {"target": "α7–GlyR mutant chimeric channels (Homo sapiens, UniProt P36544, L141G)", "sequence (P36544 23-230 L141G)": "as the sequence (P36544 23-230 L131N) above, with N109L, L119G counted along it", "sequence (P23415 247-457 partner)": "as the sequence (P23415 247-457 partner) above", "assay": "Membrane potential assay screen, mutant α7–GlyR chimeric channels", "format": "cell-based", "settings": "EC50 at α7 GlyR L141G, sheet 1d"}, "[10]": {"target": "α7–GlyR mutant chimeric channels (Homo sapiens, UniProt P36544, L141P)", "sequence (P36544 23-230 L141P)": "as the sequence (P36544 23-230 L131N) above, with N109L, L119P counted along it", "sequence (P23415 247-457 partner)": "as the sequence (P23415 247-457 partner) above", "assay": "Membrane potential assay screen, mutant α7–GlyR chimeric channels", "format": "cell-based", "settings": "EC50 at α7 GlyR L141P, sheet 1d"}, "[11]": {"target": "α7–GlyR mutant chimeric channels (Homo sapiens, UniProt P36544, P216A)", "sequence (P36544 23-230 P216A)": "as the sequence (P36544 23-230 L131N) above, with N109L, P194A counted along it", "sequence (P23415 247-457 partner)": "as the sequence (P23415 247-457 partner) above", "assay": "Membrane potential assay screen, mutant α7–GlyR chimeric channels", "format": "cell-based", "settings": "EC50 at α7 GlyR P216A, sheet 1d"}, "[12]": {"target": "α7–GlyR mutant chimeric channels (Homo sapiens, UniProt P36544, P216I)", "sequence (P36544 23-230 P216I)": "as the sequence (P36544 23-230 L131N) above, with N109L, P194I counted along it", "sequence (P23415 248-457 partner)": "as the sequence (P23415 248-457 partner) above", "assay": "Membrane potential assay screen, mutant α7–GlyR chimeric channels", "format": "cell-based", "settings": "EC50 at α7 GlyR P216I, sheet 1d"}, "[13]": {"target": "α7–GlyR mutant chimeric channels (Homo sapiens, UniProt P36544, P216M)", "sequence (P36544 23-230 P216M)": "as the sequence (P36544 23-230 L131N) above, with N109L, P194M counted along it", "sequence (P23415 248-457 partner)": "as the sequence (P23415 248-457 partner) above", "assay": "Membrane potential assay screen, mutant α7–GlyR chimeric channels", "format": "cell-based", "settings": "EC50 at α7 GlyR P216M, sheet 1d"}, "[14]": {"target": "α7–GlyR mutant chimeric channels (Homo sapiens, UniProt P36544, P216V)", "sequence (P36544 23-230 P216V)": "as the sequence (P36544 23-230 L131N) above, with N109L, P194V counted along it", "sequence (P23415 248-457 partner)": "as the sequence (P23415 248-457 partner) above", "assay": "Membrane potential assay screen, mutant α7–GlyR chimeric channels", "format": "cell-based", "settings": "EC50 at α7 GlyR P216V, sheet 1d"}, "[15]": {"target": "α7–GlyR mutant chimeric channels (Homo sapiens, UniProt P36544, Q139G)", "sequence (P36544 23-230 Q139G)": "as the sequence (P36544 23-230 L131N) above, with N109L, Q117G counted along it", "sequence (P23415 248-457 partner)": "as the sequence (P23415 248-457 partner) above", "assay": "Membrane potential assay screen, mutant α7–GlyR chimeric channels", "format": "cell-based", "settings": "EC50 at α7 GlyR Q139G, sheet 1d"}, "[16]": {"target": "α7–GlyR mutant chimeric channels (Homo sapiens, UniProt P36544, Q79A)", "sequence (P36544 23-230 Q79A)": "as the sequence (P36544 23-230 L131N) above, with Q57A, N109L counted along it", "sequence (P23415 248-457 partner)": "as the sequence (P23415 248-457 partner) above", "assay": "Membrane potential assay screen, mutant α7–GlyR chimeric channels", "format": "cell-based", "settings": "EC50 at α7-GlyR Q79A, sheet 1d"}, "[17]": {"target": "α7–GlyR mutant chimeric channels (Homo sapiens, UniProt P36544, Q79G)", "sequence (P36544 23-230 Q79G)": "as the sequence (P36544 23-230 L131N) above, with Q57G, N109L counted along it", "sequence (P23415 248-457 partner)": "as the sequence (P23415 248-457 partner) above", "assay": "Membrane potential assay screen, mutant α7–GlyR chimeric channels", "format": "cell-based", "settings": "EC50 at α7-GlyR Q79G, sheet 1d"}, "[18]": {"target": "α7–GlyR mutant chimeric channels (Homo sapiens, UniProt P36544, Q79S)", "sequence (P36544 23-230 Q79S)": "as the sequence (P36544 23-230 L131N) above, with Q57S, N109L counted along it", "sequence (P23415 248-457 partner)": "as the sequence (P23415 248-457 partner) above", "assay": "Membrane potential assay screen, mutant α7–GlyR chimeric channels", "format": "cell-based", "settings": "EC50 at α7-GlyR Q79S, sheet 1d"}, "[19]": {"target": "α7–GlyR mutant chimeric channels (Homo sapiens, UniProt P36544, W77F)", "sequence (P36544 23-230 W77F)": "as the sequence (P36544 23-230 L131N) above, with W55F, N109L counted along it", "sequence (P23415 248-457 partner)": "as the sequence (P23415 248-457 partner) above", "assay": "Membrane potential assay screen, mutant α7–GlyR chimeric channels", "format": "cell-based", "settings": "EC50 at a7 GlyR W77F, sheet 1d"}, "[20]": {"target": "coca-5HT3 (α7(L141G,G175K,Y210F,Y217F)–5HT3) (Homo sapiens, UniProt P36544, G175K/L141G/Y210F/Y217F)", "sequence (P36544 23-224 L141G/G175K/Y210F/Y217F)": "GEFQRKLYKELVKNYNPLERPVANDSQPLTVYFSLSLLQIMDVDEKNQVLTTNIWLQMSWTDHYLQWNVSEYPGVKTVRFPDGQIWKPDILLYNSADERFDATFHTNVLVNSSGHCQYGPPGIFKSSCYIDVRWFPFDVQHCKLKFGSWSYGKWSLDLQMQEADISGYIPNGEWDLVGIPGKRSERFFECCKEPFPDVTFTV", "sequence (P23979 242-489, further chain)": "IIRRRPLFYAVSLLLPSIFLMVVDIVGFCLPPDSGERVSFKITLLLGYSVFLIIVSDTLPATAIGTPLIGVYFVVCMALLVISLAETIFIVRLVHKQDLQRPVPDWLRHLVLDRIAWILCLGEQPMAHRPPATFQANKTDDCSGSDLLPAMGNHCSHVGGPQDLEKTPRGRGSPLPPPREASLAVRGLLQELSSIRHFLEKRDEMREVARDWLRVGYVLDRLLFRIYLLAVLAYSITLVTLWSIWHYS", "assay": "Membrane potential assay, coca-5HT3 in HEK293", "settings": "for Response / Max normalized Response: coca-5HT3; for Max normalized Response: ED Fig 3b"}}, "note": "“And” between values parts separate entries of the source, which are not always exact repeats. Identical values can stand only once.", "data": [{"compound": "COC(=O)[C@H]1[C@@H](OC(=O)c2ccccc2)C[C@@H]2CC[C@H]1N2C", "note": "[cocaine]", "values": [{"measurement": "EC50", "setting": "[1]; Avg", "result": "> 30", "unit": "µM"}, {"measurement": "EC50", "setting": "[1]; single determinations", "result": "> 30", "unit": "µM"}, {"measurement": "EC50", "setting": "[2]; Avg", "result": "> 30", "unit": "µM"}, {"measurement": "EC50", "setting": "[2]; single determinations", "result": "> 30", "unit": "µM"}, {"measurement": "EC50", "setting": "[3]; Avg", "result": "> 30", "unit": "µM"}, {"measurement": "EC50", "setting": "[3]; single determinations", "result": "> 30", "unit": "µM"}, {"measurement": "EC50", "setting": "[4]; Avg", "result": "> 30", "unit": "µM"}, {"measurement": "EC50", "setting": "[4]; single determinations", "result": "> 30", "unit": "µM"}, {"measurement": "EC50", "setting": "[5]; Avg", "result": 21, "unit": "µM"}, {"measurement": "EC50", "setting": "[5]; single determinations", "result": "12 µM and > 30 µM"}, {"measurement": "EC50", "setting": "[6]; Avg", "result": "> 30", "unit": "µM"}, {"measurement": "EC50", "setting": "[6]; single determinations", "result": "> 30", "unit": "µM"}, {"measurement": "EC50", "setting": "[7]; Avg", "result": 5, "unit": "µM"}, {"measurement": "EC50", "setting": "[7]; single determinations", "result": "6.7 µM and 3.3 µM"}, {"measurement": "EC50", "setting": "[8]; Avg", "result": "> 30", "unit": "µM"}, {"measurement": "EC50", "setting": "[8]; single determinations", "result": "> 30", "unit": "µM"}, {"measurement": "EC50", "setting": "[9]; Avg", "result": 8.3, "unit": "µM"}, {"measurement": "EC50", "setting": "[9]; single determinations", "result": "5.6 µM and 11 µM"}, {"measurement": "EC50", "setting": "[10]; Avg", "result": "> 30", "unit": "µM"}, {"measurement": "EC50", "setting": "[10]; single determinations", "result": "> 30", "unit": "µM"}, {"measurement": "EC50", "setting": "[11]; Avg", "result": "> 30", "unit": "µM"}, {"measurement": "EC50", "setting": "[11]; single determinations", "result": "> 30", "unit": "µM"}, {"measurement": "EC50", "setting": "[12]; Avg", "result": "> 30", "unit": "µM"}, {"measurement": "EC50", "setting": "[12]; single determinations", "result": "> 30", "unit": "µM"}, {"measurement": "EC50", "setting": "[13]; Avg", "result": "> 30", "unit": "µM"}, {"measurement": "EC50", "setting": "[13]; single determinations", "result": "> 30", "unit": "µM"}, {"measurement": "EC50", "setting": "[14]; Avg", "result": "> 30", "unit": "µM"}, {"measurement": "EC50", "setting": "[14]; single determinations", "result": "> 30", "unit": "µM"}, {"measurement": "EC50", "setting": "[15]; Avg", "result": "> 30", "unit": "µM"}, {"measurement": "EC50", "setting": "[15]; single determinations", "result": "> 30", "unit": "µM"}, {"measurement": "EC50", "setting": "[16]; Avg", "result": "> 30", "unit": "µM"}, {"measurement": "EC50", "setting": "[16]; single determinations", "result": "> 30", "unit": "µM"}, {"measurement": "EC50", "setting": "[17]; Avg", "result": "> 30", "unit": "µM"}, {"measurement": "EC50", "setting": "[17]; single determinations", "result": "> 30", "unit": "µM"}, {"measurement": "EC50", "setting": "[18]; Avg", "result": "> 30", "unit": "µM"}, {"measurement": "EC50", "setting": "[18]; single determinations", "result": "> 30", "unit": "µM"}, {"measurement": "EC50", "setting": "[19]; Avg", "result": 3.4, "unit": "µM"}, {"measurement": "EC50", "setting": "[19]; single determinations", "result": 3.4, "unit": "µM"}, {"measurement": "EC50", "setting": "[20]; EC50 at a75HT3 L141G G175K Y210F Y217F, AVG, sheet 1e", "result": 1.58, "unit": "µM"}, {"measurement": "EC50", "setting": "[20]; EC50 at a75HT3 L141G G175K Y210F Y217F, sheet 1e, single determinations", "result": "1.8 µM and 1 µM and 2.64 µM and 0.81 µM and 1.25 µM and 0.84 µM and 2.8 µM"}, {"measurement": "Response", "setting": "[20]; conc 0.0137 uM, ED Fig. 2c", "result": 0.067}, {"measurement": "Response", "setting": "[20]; conc 0.0137174 uM, ED Fig. 2b", "result": 0.067}, {"measurement": "Response", "setting": "[20]; conc 0.123 uM, ED Fig. 2c", "result": 0.063}, {"measurement": "Response", "setting": "[20]; conc 0.123457 uM, ED Fig. 2b", "result": 0.063}, {"measurement": "Max normalized Response", "setting": "[20]; conc 0.137 uM", "result": 0.07313}, {"measurement": "Response", "setting": "[20]; conc 0.37 uM, ED Fig. 2c", "result": 0.098}, {"measurement": "Response", "setting": "[20]; conc 0.37037 uM, ED Fig. 2b", "result": 0.098}, {"measurement": "Response", "setting": "[20]; conc 0.457247 uM, ED Fig 3a", "result": 0.103}, {"measurement": "Response", "setting": "[20]; conc 1.11111 uM, ED Fig. 2b", "result": 0.363}, {"measurement": "Response", "setting": "[20]; conc 1.37174 uM, ED Fig 3a", "result": 0.237}, {"measurement": "Response", "setting": "[20]; conc 3.33333 uM, ED Fig. 2b", "result": 0.825}, {"measurement": "Max normalized Response", "setting": "[20]; conc 3.7 uM", "result": 0.5001}, {"measurement": "Response", "setting": "[20]; conc 10 uM, ED Fig. 2b", "result": 1.02}, {"measurement": "Response", "setting": "[20]; conc 10 uM, ED Fig. 2c", "result": 1.023}, {"measurement": "Max normalized Response", "setting": "[20]; conc 11.1 uM", "result": 0.7653}, {"measurement": "Response", "setting": "[20]; conc 12.3457 uM, ED Fig 3a", "result": 1.106}, {"measurement": "Response", "setting": "[20]; conc 30 uM, ED Fig. 2b", "result": 0.86}, {"measurement": "Response", "setting": "[20]; conc 30 uM, ED Fig. 2c", "result": 0.864}, {"measurement": "Max normalized Response", "setting": "[20]; conc 33.3 uM", "result": 0.8419}, {"measurement": "Response", "setting": "[20]; conc 37.037 uM, ED Fig 3a", "result": 0.885}, {"measurement": "Max normalized Response", "setting": "[20]; conc 100 uM", "result": 0.9656}, {"measurement": "EC50", "setting": "[20]; half-maximum effective concentration (EC50), HEK293, fluorescence membrane potential assay", "result": "1.5 ± 0.3", "unit": "µM"}, {"measurement": "peak brain cocaine concentration relative to EC50 for coca-5HT3", "setting": "[20]; intravenous dose in rats, Pan et al 1991", "result": "approximately 1.5 fold"}]}]}
